Structures are written as SMILES. Calls of active or inactive are those of the source. The calls are words filed in the database; no cut-off is given here.

The subject of series [1] is B16-F10. Put plainly: Induction of melanin synthesis in mouse B16F10 cells after 48 hrs by fluorescence microscopy relative to control. Also on record: concentration or dose not given beside the values. The class given is functional.
Series [2] is described as follows: Cellular uptake in mouse B16F10 cells at 0.1 uM after 4 hrs by confocal imaging analysis in presence of 0.1 to 1 uM 3',4',7-trihydroxyflavaonone. The class given is ADME, cell-based. The conditions noted are these: b16-f10, 4 h.
A short description of series [3]: Drug uptake in mouse B16F10 cell endoplasmic reticulum at 0.1 uM after 4 hrs by ER-tracker Red staining-based confocal imaging analysis. The class given is ADME. The conditions noted are these: b16-f10, 4 h.
Series [4] concerns B16-F10. Briefly: Induction of melanogenesis in mouse B16F10 cells at 0.01 to 10 uM after 48 hrs by fluorescence microscopy relative to control. The class given is functional, cell-based.
Series [5] can be described thus: Drug uptake in mouse B16F10 cell nucleus at 0.1 uM after 4 hrs by DAPI staining-based confocal imaging analysis. The series is classed as ADME. As to conditions: b16-f10, 4 h.
Series [6] deals with Mus musculus. Put plainly: Induction of melanogenesis in C57BL/6 depigmentation mouse assessed as increase in melanin content of hair follicle on depigmented skin at 1.6 to 4.8 mg/kg, ip for 2 weeks by H&E stainig-based histomorphology. The series is classed as functional, organism-based.
Series [7] concerns Mus musculus. Briefly: Induction of melanogenesis in C57BL/6 depigmentation mouse assessed as increase in tyrosinase protein expression at 1.6 to 4.8 mg/kg, ip for 2 weeks measured on day 12 by H&E staining-based histomorphology. The class given is functional, organism-based.
In series [8] the test system is Mus musculus. Briefly: Induction of melanogenesis in C57BL/6 depigmentation mouse assessed as increase in TRP-1 protein expression at 1.6 to 4.8 mg/kg, ip for 2 weeks measured on day 12 by H&E staining-based histomorphology. The series is classed as functional, organism-based.
In series [9] the test system is Mus musculus. Put plainly: Induction of melanogenesis in C57BL/6 depigmentation mouse assessed as increase in MITF protein expression at 1.6 to 4.8 mg/kg, ip for 2 weeks measured on day 12 by H&E staining-based histomorphology. The series is classed as functional, organism-based.
Series [10] has as its system Mus musculus. Briefly: Induction of melanogenesis in C57BL/6 depigmentation mouse assessed as increase in TRP-2 protein expression at 1.6 to 4.8 mg/kg, ip for 2 weeks measured on day 12 by H&E staining-based histomorphology. The series is classed as functional, organism-based.

In series [1], `COc1ccc2c(c1)OC(c1ccc(OC(=O)c3ccccc3Cl)c(OC(=O)c3ccccc3Cl)c1)CC2=O` (centres undefined) displayed an Activity of 119.46%.
In turn, `COc1ccc2c(c1)OC(c1ccc(OS(=O)(=O)c3ccc(C)cc3)c(OS(=O)(=O)c3ccc(C)cc3)c1)CC2=O` (centres undefined) yielded an Activity in series [1] of 100.52%.
The molecule `C=CCOc1ccc(C2CC(=O)c3ccc(OC)cc3O2)cc1OCC=C` (centres undefined) had an Activity in series [1] of 91.19%.
As for `CC1=CC(C)=[N+]2C1=C(CCC(=O)N/N=C1\CC(c3ccc(O)c(O)c3)Oc3cc(O)ccc31)c1c(C)cc(C)n1[B-]2(F)F` (centres undefined), the Drug uptake result is “Not Active” in series [2], “Active” in [3] and “Active” in series [5]. Also, the outcome in [4] was Active.
Regarding `COc1ccc2c(c1)OC(c1ccc(O)c(O)c1)CC2=O` (centres undefined), the Activity in series [1] came out at 110.31%.
Still for that read-out and setting: with `COc1ccc2c(c1)OC(c1ccc(OC(=O)c3ccco3)c(OC(=O)c3ccco3)c1)CC2=O` (centres undefined) the figure was 96.11%.
On the same count and under the same terms, under `COc1ccc2c(c1)OC(c1ccc(OC(=O)c3ccc(F)cc3)c(OC(=O)c3ccc(F)cc3)c1)CC2=O` (centres undefined) stands 111.79%.
On the same count and under the same terms, with `COc1ccc2c(c1)OC(c1ccc(OC(C)=O)c(OC(C)=O)c1)CC2=O` (centres undefined) the figure was 132.3%.
Take `CCC(=O)Oc1ccc(C2CC(=O)c3ccc(OC)cc3O2)cc1OC(=O)CC` (centres undefined): the Activity in series [1] was 133.65%.
Still for that read-out and setting: under `COc1ccc2c(c1)OC(c1ccc(OC(=O)c3ccc(C)cc3)c(OC(=O)c3ccc(C)cc3)c1)CC2=O` (centres undefined) stands 113.49%.
Same read-out and setting: with `COc1ccc2c(c1)OC(c1ccc(OC(=O)c3ccc(Cl)cc3)c(OC(=O)c3ccc(Cl)cc3)c1)CC2=O` (centres undefined) the figure was 121.98%.
Take `COc1ccc2c(c1)OC(c1ccc(O)c(O)c1)C/C2=N/O` (centres undefined): the result in series [6], in series [7], in [8], in series [9] and in [10] was Active. In series [1], this molecule came in with an Activity of 134.71%.
In the case of `CCCCCCCCCCCCCC(=O)Oc1ccc(C2CC(=O)c3ccc(OC)cc3O2)cc1O` (centres undefined), in series [1], the Activity amounted to 44.63%.
On to `CCCCCCCCCCCC(=O)Oc1ccc(C2CC(=O)c3ccc(OC)cc3O2)cc1OC(=O)CCCCCCCCCCC` (centres undefined), for which the Activity in series [1] turned out to be 89.54%.
Same read-out and setting: with `COc1ccc2c(c1)OC(c1ccc(OC(=O)c3ccccc3)c(OC(=O)c3ccccc3)c1)CC2=O` (centres undefined) the figure was 121.43%; with `CCCCCCCCCCCC(=O)Oc1ccc(C2CC(=O)c3ccc(OC)cc3O2)cc1O` (centres undefined), 74.13%.
